According to ChEMBL document CHEMBL5523733, “Small Molecule Targeting PPM1A Activates Autophagy for Mycobacterium tuberculosis Host-Directed Therapy” (J Med Chem, 2024):

Legend:
Protein phosphatase 1A = target: T1, Protein phosphatase 1A (Homo sapiens, UniProt P35813); test: Inhibition of recombinant human PPM1A using pNPP as substrate preincubated for 15 mins followed by substrate addition measured after 20 mins by absorbance based assay
T1 sequence (P35813 whole entry): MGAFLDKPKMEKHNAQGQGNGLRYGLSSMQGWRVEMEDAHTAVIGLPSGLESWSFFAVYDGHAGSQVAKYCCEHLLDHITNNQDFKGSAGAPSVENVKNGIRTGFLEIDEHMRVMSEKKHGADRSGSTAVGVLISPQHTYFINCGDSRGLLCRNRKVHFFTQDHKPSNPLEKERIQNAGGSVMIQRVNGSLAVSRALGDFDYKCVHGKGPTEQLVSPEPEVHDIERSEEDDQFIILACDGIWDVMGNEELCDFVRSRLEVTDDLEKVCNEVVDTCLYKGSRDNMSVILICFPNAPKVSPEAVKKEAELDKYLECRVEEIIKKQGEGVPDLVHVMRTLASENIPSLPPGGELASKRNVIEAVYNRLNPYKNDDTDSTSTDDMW

[1] = Cytotoxicity against human THP-1 cells by resazurin dye based assay; type: toxicity, cell-based
[2] = Cytotoxicity against human Caco-2 cells by resazurin dye based assay; type: toxicity, cell-based

Row | Structure (SMILES) | IC50 (Protein phosphatase 1A) | CC50 [1] | CC50 [2]
1 | COc1cc2c[n+](CCO)c3ccc(F)cc3c2cc1I | > 20 µM | – | –
2 | OCC[n+]1cc2ccccc2c2cc(F)ccc21 | > 20 µM | – | –
3 | COc1ccc2c(c1)c[n+](CCO)c1cc(F)ccc21 | > 20 µM | – | –
4 | COc1ccc2c(c1)c[n+](CC(C)O)c1ccc(F)cc21 (stereo unspecified) | > 20 µM | – | –
5 | COc1cc2c[n+](CCO)c3ccc(F)cc3c2cc1C#Cc1ccccc1 | > 10 µM | – | –
6 | COc1cc2c[n+](CCO)c3ccc(F)cc3c2cc1C1CC1 | > 20 µM | – | –
7 | CCOc1ccc2c(c1)c1ccc(OC)cc1c[n+]2CCO | > 20 µM | – | –
8 | COc1ccc2c(c1)c[n+](C(C)CO)c1ccc(F)cc21 (stereo unspecified) | > 10 µM | – | –
9 | COc1ccc2c(c1)c[n+](NCCO)c1ccc(F)cc21 | > 10 µM | – | –
10 | OCC[n+]1cc2cc(F)ccc2c2cc(F)ccc21 | > 20 µM | – | –
11 | COc1ccc2cc[n+](CCO)cc2c1 | > 20 µM | – | –
12 | CC(C)COc1ccc2c(c1)c[n+](CCO)c1ccc(F)cc21 | > 20 µM | – | –
13 | COc1ccc2c(c1)c[n+](CCO)c1ccc(Cl)cc21 | > 20 µM | – | –
14 | COc1ccc2c(c1)c[n+](CCCO)c1ccc(F)cc21 | > 10 µM | – | –
15 | COc1cc2c[n+](CCO)c3ccc(F)cc3c2cc1-c1ccc2c(c1)OCO2 | > 20 µM | – | –
16 | COc1ccc2c(c1)c[n+](C(CO)CO)c1ccc(F)cc21 | > 20 µM | – | –
17 | OCC[n+]1cc2cc3c(cc2c2cc(F)ccc21)OCO3 | > 20 µM | – | –
18 | OCC[n+]1cc2cc(OC(F)(F)F)ccc2c2cc(F)ccc21 | 1.43 µM | > 200 µM | > 200 µM
19 | COC(=O)c1cccc(-c2cc3c(cc2OC)c[n+](CCO)c2ccc(F)cc32)c1 | > 20 µM | – | –
